Data reported in patent publication US10994015B2, “EGFR proteolysis targeting chimeric molecules and associated methods of use” (Arvinas Operations, Inc., priority 2016, dated 2021).

What was measured:
EGFR L858R/T790M = EGFR L858R/T790M (Homo sapiens (Human), UniProt P00533, L858R/T790M); assay: TR-FRET assay for ERBB kinases; format: biochemical; details: geometric mean if measured more than once
Experimental: (§1) TR-FRET Assay for ERBB Kinases
(§2) All compounds and PROTACs were serially diluted in three-fold increments using 100% DMSO, followed by an intermediate 10-fold dilution using Buffer A (50 mM HEPES, pH 7.5, 50 mM NaCl, 10 mM MgCl2, 1 mM DTT, and 0.1% Pluronic F-68). […] Next, 10 uL of protein kinase in Buffer A was added to each well of the assay plate and pre-incubated with compound for 10 minutes. Kinase reactions were then initiated by addition of 5 uL substrate mix containing 3 mM ATP and 30 uM fluorescein-labeled Poly-GluTyr (Thermo Fisher, #PV3610) in Buffer A and allowed to proceed for 10 minutes at room temperature. Reactions were quenched by addition of a 5 uL mixture containing 5 nM LanthaScreen® Tb-pY20 Antibody (Thermo Fisher, #PV3552) and 40 mM EDTA in Buffer A. Assay plates were then read using a Synergy2 (Biotek Instruments, Winooski, Vt.) via excitation thru a 340/20 nm bandpass filter and emission collected thru 490/10 nm (donor) and 520/25 nm (acceptor) bandpass filters.

EGFR L858R/T790M/C797S = EGFR L858R/T790M/C797S (Homo sapiens (Human), UniProt P00533, C797S/L858R/T790M); assay: TR-FRET assay for ERBB kinases; format: biochemical; details: geometric mean if measured more than once
Experimental: as §1, §2

EGFR WT = EGFR WT (Homo sapiens (Human), UniProt P00533); assay: TR-FRET assay for ERBB kinases; format: biochemical; details: geometric mean if measured more than once
Experimental: as §1, §2

EGFR Exon20NPG = EGFR Exon20NPG (Homo sapiens (Human), UniProt P00533, INS770NPG); assay: TR-FRET assay for ERBB kinases; format: biochemical; details: geometric mean if measured more than once
Experimental: as §1
All compounds and PROTACs were serially diluted in three-fold increments using 100% DMSO, followed by an intermediate 10-fold dilution using Buffer A (50 mM HEPES, pH 7.5, 50 mM NaCl, 10 mM MgCl2, 1 mM DTT, and 0.1% Pluronic F-68). Two microliters of serially diluted compound or PROTAC were then transferred to black 384-well Proxiplates (PerkinElmer, #6008260) using an Integra Viaflo96. Next, 10 uL of protein kinase in Buffer A was added to each well of the assay plate and pre-incubated with compound for 10 minutes. Kinase reactions were then initiated by addition of 5 uL substrate mix containing 3 mM ATP and 30 uM fluorescein-labeled Poly-GluTyr (Thermo Fisher, #PV3610) in Buffer A and allowed to proceed for 10 minutes at room temperature. Reactions were quenched by addition of a 5 uL mixture containing 5 nM LanthaScreen® Tb-pY20 Antibody (Thermo Fisher, #PV3552) and 40 mM EDTA in Buffer A. Assay plates were then read using a Synergy2 (Biotek Instruments, Winooski, Vt.) via excitation thru a 340/20 nm bandpass filter and emission collected thru 490/10 nm (donor) and 520/25 nm (acceptor) bandpass filters.

[1] = target: EGFR L858R/T790M/C797S triple mutant (H520*) (Homo sapiens (Human), UniProt P00533, C797S/L858R/T790M); assay: EGFR protein degradation assay (Western blot); format: cell-based; details: 72 hours, 300 nM to 10 nM
Experimental: EGFR Protein Degradation assay
Cells were incubated overnight at 37° C., 5% CO2 prior to compound addition. A 10 mM compound stock in DMSO was serially diluted in DMSO to provide the following stock concentrations: 1, 0.3, 0.1, 0.03 and 0.01 mM. An appropriate volume of each compound dilution, together with a DMSO vehicle control, was added to media to provide a 2× compound solution. […] At the end of the compound treatment, cells were washed once with ice-cold phosphate-buffered saline (PBS) and treated with lysis solution (1× lysis buffer, Cell Signaling Technologies (CST #9803) supplemented with Piarce™ protease inhibitors, #A32953, Thermo Fisher Scientific, TFS). Lysates were collected and clarified of cell debris by spinning at 10K rpm for 10 minutes. A specific volume of supernatant was retrieved for protein quantification (Pierce™ BCA kit, TFS #23225) and for Western analysis. Loading buffer supplemented with EDTA and reducing agent was added to each supernatant. A specific volume of supernatant (determined by protein assay: […] loaded per sample) was loaded into a NuPAGE™ 4-12% Bis-Tris gel (TFS). Samples were run at 165V in MOPS running buffer for 2 hours and then transferred to PVDF blotting membrane using a dry blotting system (iBlot2, TFS). Membranes were blocked in Tris-buffered saline supplemented with Tween, 0.1% (TBST) containing 5% non-fat dry milk, (AmericanBio). Following block, membranes were washed once with TBST. […] Membranes were washed 3× with TBST prior to addition of secondary antibody (1:10 000, anti-rabbit HRP-linked, CST #7074) in TBST with 3% BSA and then incubated at room temperature for one hour. Membranes were then washed 3× with TBS and signal developed by exposure to developer (SuperSignal West Femto, TFS) for 5 minutes. Membranes were then immediately imaged using a BioRad Chemidoc.

EGFR L858R/T790M/C797S triple mutant (H520*), sequence (P00533 25-1210 T790M/C797S/L858R): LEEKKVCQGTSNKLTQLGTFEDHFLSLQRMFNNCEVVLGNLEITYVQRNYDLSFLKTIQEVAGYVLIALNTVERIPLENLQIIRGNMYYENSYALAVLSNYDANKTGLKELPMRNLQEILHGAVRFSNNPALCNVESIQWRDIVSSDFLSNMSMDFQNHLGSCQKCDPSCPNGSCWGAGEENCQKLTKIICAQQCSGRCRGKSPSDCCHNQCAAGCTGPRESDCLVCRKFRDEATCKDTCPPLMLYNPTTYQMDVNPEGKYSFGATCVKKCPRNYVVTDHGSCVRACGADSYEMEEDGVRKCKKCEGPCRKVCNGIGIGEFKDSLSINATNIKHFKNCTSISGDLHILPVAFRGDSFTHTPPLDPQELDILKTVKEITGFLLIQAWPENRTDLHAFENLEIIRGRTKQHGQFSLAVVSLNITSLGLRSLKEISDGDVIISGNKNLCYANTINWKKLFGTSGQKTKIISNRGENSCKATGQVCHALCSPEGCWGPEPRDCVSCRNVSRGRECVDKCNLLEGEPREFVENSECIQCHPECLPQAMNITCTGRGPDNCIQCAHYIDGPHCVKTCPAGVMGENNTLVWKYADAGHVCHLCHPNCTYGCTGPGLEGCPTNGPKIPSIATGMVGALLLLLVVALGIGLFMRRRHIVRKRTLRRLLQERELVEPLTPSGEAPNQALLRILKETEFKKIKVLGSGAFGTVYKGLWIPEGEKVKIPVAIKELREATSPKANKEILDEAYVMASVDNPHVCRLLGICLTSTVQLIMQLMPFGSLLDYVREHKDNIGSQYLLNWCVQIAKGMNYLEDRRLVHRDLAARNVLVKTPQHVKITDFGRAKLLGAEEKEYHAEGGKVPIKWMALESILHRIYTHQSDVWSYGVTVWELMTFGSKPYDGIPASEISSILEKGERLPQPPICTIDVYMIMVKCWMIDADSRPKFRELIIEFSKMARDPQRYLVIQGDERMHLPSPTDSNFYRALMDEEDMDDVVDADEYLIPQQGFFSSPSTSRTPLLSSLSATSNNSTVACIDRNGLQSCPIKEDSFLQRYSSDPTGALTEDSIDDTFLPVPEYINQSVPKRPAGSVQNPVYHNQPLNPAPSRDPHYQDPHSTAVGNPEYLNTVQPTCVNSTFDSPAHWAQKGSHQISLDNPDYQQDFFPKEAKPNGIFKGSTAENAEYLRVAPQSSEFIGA
EGFR L858R/T790M/C797S, sequence (P00533 25-1210 T790M/C797S/L858R): as above
EGFR L858R/T790M, sequence (P00533 25-1210 T790M/L858R): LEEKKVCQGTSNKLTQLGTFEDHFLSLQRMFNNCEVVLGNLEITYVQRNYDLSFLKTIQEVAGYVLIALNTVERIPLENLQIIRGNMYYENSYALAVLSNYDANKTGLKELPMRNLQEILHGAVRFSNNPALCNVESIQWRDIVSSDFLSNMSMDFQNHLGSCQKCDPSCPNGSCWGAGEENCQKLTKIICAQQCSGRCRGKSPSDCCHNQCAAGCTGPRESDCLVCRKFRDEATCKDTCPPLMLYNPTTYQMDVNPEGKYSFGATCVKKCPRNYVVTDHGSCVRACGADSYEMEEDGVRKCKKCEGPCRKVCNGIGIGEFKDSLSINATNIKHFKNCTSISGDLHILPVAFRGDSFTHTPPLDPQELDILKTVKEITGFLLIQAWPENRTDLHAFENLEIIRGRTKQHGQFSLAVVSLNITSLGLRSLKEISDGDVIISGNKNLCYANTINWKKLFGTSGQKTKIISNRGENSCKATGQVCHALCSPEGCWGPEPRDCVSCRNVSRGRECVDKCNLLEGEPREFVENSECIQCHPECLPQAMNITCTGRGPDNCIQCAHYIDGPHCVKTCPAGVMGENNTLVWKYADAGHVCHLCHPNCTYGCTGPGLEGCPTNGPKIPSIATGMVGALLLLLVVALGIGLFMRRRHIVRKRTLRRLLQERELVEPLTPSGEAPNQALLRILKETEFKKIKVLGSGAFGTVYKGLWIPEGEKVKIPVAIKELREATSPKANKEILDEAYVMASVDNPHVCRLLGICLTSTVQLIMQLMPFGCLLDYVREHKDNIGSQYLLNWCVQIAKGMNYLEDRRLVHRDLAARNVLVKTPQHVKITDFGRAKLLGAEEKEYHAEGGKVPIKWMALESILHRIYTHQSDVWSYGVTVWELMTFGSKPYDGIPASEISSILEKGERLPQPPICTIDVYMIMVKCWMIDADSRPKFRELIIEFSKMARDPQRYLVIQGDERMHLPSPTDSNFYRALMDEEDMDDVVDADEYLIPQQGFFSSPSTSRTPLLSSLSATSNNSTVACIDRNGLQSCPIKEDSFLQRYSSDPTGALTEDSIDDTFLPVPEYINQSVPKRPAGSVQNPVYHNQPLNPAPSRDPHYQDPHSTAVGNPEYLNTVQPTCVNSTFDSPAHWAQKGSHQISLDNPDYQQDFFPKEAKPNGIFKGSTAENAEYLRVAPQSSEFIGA
EGFR WT, sequence (P00533 25-1210): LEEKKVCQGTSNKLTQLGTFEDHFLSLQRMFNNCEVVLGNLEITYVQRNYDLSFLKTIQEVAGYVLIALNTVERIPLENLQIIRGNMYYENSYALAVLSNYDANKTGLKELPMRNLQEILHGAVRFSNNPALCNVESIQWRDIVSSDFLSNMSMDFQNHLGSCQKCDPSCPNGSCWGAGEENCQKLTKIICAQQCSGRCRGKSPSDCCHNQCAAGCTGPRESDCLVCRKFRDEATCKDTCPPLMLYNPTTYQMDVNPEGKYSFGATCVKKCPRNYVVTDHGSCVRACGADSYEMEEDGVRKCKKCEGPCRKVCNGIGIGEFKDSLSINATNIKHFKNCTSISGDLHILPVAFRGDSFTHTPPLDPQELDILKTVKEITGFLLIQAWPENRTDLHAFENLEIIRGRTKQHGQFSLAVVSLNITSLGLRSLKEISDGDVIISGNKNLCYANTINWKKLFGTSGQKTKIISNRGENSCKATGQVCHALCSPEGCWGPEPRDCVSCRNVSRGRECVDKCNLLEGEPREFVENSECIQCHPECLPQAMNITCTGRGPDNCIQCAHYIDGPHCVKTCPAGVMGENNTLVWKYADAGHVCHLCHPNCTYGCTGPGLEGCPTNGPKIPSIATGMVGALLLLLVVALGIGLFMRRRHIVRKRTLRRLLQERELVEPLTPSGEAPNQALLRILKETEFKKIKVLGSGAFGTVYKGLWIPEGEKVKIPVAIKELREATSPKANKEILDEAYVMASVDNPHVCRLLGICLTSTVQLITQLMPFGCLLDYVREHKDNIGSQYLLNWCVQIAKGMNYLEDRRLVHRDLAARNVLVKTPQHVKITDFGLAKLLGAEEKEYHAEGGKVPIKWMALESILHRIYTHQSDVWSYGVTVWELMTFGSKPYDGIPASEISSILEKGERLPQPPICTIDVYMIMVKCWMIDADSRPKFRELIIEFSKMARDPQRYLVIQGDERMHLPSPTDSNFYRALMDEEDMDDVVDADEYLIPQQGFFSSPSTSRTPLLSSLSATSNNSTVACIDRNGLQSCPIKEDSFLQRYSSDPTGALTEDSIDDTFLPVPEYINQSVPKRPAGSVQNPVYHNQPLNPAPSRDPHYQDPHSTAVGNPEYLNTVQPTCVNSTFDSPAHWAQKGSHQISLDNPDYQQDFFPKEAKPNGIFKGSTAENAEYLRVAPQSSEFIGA

SMILES | IC50 (EGFR L858R/T790M) [nM] | IC50 (EGFR L858R/T790M/C797S) [nM] | IC50 (EGFR WT) [nM] | IC50 (EGFR Exon20NPG) [nM] | EGFR protein remaining, EGFR L858R/T790M/C797S triple mutant [1]
O=C1CCC(N2C(=O)c3ccc(OCCOCCOCCOCCCc4cccc5c4C(=O)N(C(C(=O)Nc4nccs4)c4cc(F)ccc4O)C5)cc3C2=O)C(=O)N1 (centres unmarked) [Example 283, 2-(7-(3-(2-(2-(2-((2-(2,6-dioxopiperidin-3-yl)-1,3-dioxoisoindolin-5-yl)oxy)ethoxy)ethoxy)ethoxy)propyl)-1-oxoisoindolin-2-yl)-2-(5-fluoro-2-hydroxyphenyl)-N-(thiazol-2-yl)acetamide] | 2800 | 820 | 1200 | 4600 | C (>80% EGFR protein remaining after 72 hours of incubation with the test compound at a concentration of 300 nM)
O=C1CCC(N2C(=O)c3ccc(N4CCN(CC5CCN(CCCc6cccc7c6C(=O)N(C(C(=O)Nc6nccs6)c6cc(F)ccc6O)C7)CC5)CC4)cc3C2=O)C(=O)N1 (centres unmarked) [compound 294] | 810 | 170 | 3500 | – | C (>80% EGFR protein remaining after 72 hours of incubation with the test compound at a concentration of 300 nM)
COC1CCN(c2nccc(Nc3cc4c(cn3)nc(COCCN3CCN(c5ccc(O[C@H]6C[C@H](OCC(=O)N[C@H](C(=O)N7C[C@H](O)C[C@H]7C(=O)NCc7ccc(-c8scnc8C)cc7)C(C)(C)C)C6)cc5)CC3)n4C(C)C)n2)CC1 [Example 302, (2S,4R)-4-hydroxy-1-((S)-2-(2-((1r,3s)-3-(4-(4-(2-((1-isopropyl-6-((2-(4-methoxypiperidin-1-yl)pyrimidin-4-yl)amino)-1H-imidazo[4,5-c]pyridin-2-yl)methoxy)ethyl)piperazin-1-yl)phenoxy)cyclobutoxy)acetamido)-3,3-dimethylbutanoyl)-N-(4-(4-methylthiazol-5-yl)benzyl)pyrrolidine-2-carboxamide] | 670 | 320 | > 30000 | – | A (≤50% EGFR protein remaining after 72 hours of incubation with the test compound at a concentration between 300 nM and 10 nM)
COC1CCN(c2nccc(Nc3cc4c(cn3)nc(COCCN3CCN(c5ccc(OCCCOCC(=O)N[C@H](C(=O)N6C[C@H](O)C[C@H]6C(=O)NCc6ccc(-c7scnc7C)cc6)C(C)(C)C)cc5)CC3)n4C(C)C)n2)CC1 [compound 303] | 550 | 250 | > 30000 | – | A (≤50% EGFR protein remaining after 72 hours of incubation with the test compound at a concentration between 300 nM and 10 nM)
CC(C)n1c(COCCN2CCN(c3ccc(OCCCN4CCN(c5ccc6c(c5)C(=O)N(C5CCC(=O)NC5=O)C6=O)CC4)cc3)CC2)nc2cnc(Nc3ccnc(-c4cnn(S(=O)(=O)C5CC5)c4)n3)cc21 (centres unmarked) [compound 305] | 9.8 | 1.3 | 2100 | – | C (>80% EGFR protein remaining after 72 hours of incubation with the test compound at a concentration of 300 nM)
Cc1ncsc1-c1ccc([C@H](C)NC(=O)[C@H]2C[C@H](O)CN2C(=O)[C@@H](NC(=O)COCCOCCOCCOCCOCCOc2ccc(-c3nccc(Nc4cc5c(cn4)nc(C)n5C(C)C)n3)cc2)C(C)(C)C)cc1 [compound 280] | > 30000 | > 30000 | > 30000 | > 30000 | C (>80% EGFR protein remaining after 72 hours of incubation with the test compound at a concentration of 300 nM)
O=C1CCC(N2C(=O)c3ccc(N4CCN(CCCOCCCCNc5cccc6c5C(=O)N(C(C(=O)Nc5nccs5)c5cc(F)ccc5O)C6)CC4)cc3C2=O)C(=O)N1 (centres unmarked) [compound 289] | 1700 | 190 | 1200 | – | C (>80% EGFR protein remaining after 72 hours of incubation with the test compound at a concentration of 300 nM)
Cc1ncsc1-c1ccc([C@H](C)NC(=O)[C@H]2C[C@H](O)CN2C(=O)[C@@H](NC(=O)COCCOCCOCCOCCOC2CCN(c3nccc(Nc4cc5c(cn4)nc(C)n5C(C)C)n3)CC2)C(C)(C)C)cc1 [compound 284] | > 30000 | 12000 | 14000 | 30000 | C (>80% EGFR protein remaining after 72 hours of incubation with the test compound at a concentration of 300 nM)
O=C1CCC(N2C(=O)c3cccc(NCCOCCOCCOCCOCCOCCOCC#Cc4cccc5c4C(=O)N(C(C(=O)Nc4nccs4)c4cc(F)ccc4O)C5)c3C2=O)C(=O)N1 (centres unmarked) [compound 295] | 3100 | 710 | 34000 | – | C (>80% EGFR protein remaining after 72 hours of incubation with the test compound at a concentration of 300 nM)
Cc1ncsc1-c1ccc([C@H](C)NC(=O)[C@@H]2C[C@@H](O)CN2C(=O)[C@@H](NC(=O)COCCOCCOCCOCCOCCOCCOCC#Cc2cccc3c2C(=O)N(C(C(=O)Nc2nccs2)c2cc(F)ccc2O)C3)C(C)(C)C)cc1 (some centres unmarked) [compound 299] | 4600 | 200 | 240 | – | C (>80% EGFR protein remaining after 72 hours of incubation with the test compound at a concentration of 300 nM)
Cc1ncsc1-c1ccc([C@H](C)NC(=O)[C@@H]2C[C@@H](O)CN2C(=O)[C@@H](NC(=O)COCCOCCOCCc2ccc(OC3CCN(c4nccc(Nc5cc6c(cn5)nc(C)n6C(C)C)n4)CC3)cc2)C(C)(C)C)cc1 [Example 291, (2S,4R)-1-((S)-2-(Tert-butyl)-14-(4-((1-(4-((1-isopropyl-2-methyl-1H-imidazo[4,5-c]pyridin-6-yl)amino)pyrimidin-2-yl)piperidin-4-yl)oxy)phenyl)-4-oxo-6,9,12-trioxa-3-azatetradecanoyl)-4-hydroxy-N—((S)-1-(4-(4-methylthiazol-5-yl)phenyl)ethyl)pyrrolidine-2-carboxamide] | > 60000 | > 60000 | 14000 | – | C (>80% EGFR protein remaining after 72 hours of incubation with the test compound at a concentration of 300 nM)
